Measured values published in patent US10206902B2, “Mono- or di-substituted indoles as dengue viral replication inhibitors” (priority 2014, dated 2019).

Tests used:
Assay type in all cases: cell-based
[1] = tested on: DENV-3 strain H87 prototype; assay: Tetravalent RT-qPCR assay Protocol B, serotype 3; conditions: Dengue virus, DENV3, 168 h, RT-qPCR serotype 3 H87, Vero cells, 7 days
Procedure: (§1) Vero cells (4×10^4) were seeded in 96-well plates. […] Following a 2 hour incubation period, the cell monolayer was washed 3 times with assay medium to remove residual, non-adsorbed virus and cultures were further incubated for either 4 days (DENV-2 NGC-Tongalike) or 7 days (DENV-1 Djibouti strain D1/H/IMTSSA/98/606, DENV-3 strain H87 prototype, DENV-4 strain H241′) in the presence of the inhibitor. Supernatant was harvested and viral RNA load was determined by real-time quantitative RT-PCR. The 50% effective concentration (EC50), which is defined as the compound concentration that is required to inhibit viral RNA replication by 50%, was determined using logarithmic interpolation (Tables 7 and 8). RNA was isolated from 100 μL supernatant with the NucleoSpin 96 Virus kit (Filter Service, Duren, Germany) as described by the manufacturer. The sequences of the TaqMan primers (DENV-For, DENV-Rev; Table 5) and TaqMan probes (DENV-Probe Table 5) were selected from non-structural gene 3 (NS3) or NS5, of the respective flaviviruses using Primer Express software (version 2.0; Applied Biosystems, Lennik, Belgium). The TaqMan probe was fluorescently labelled with 6-carboxyfluorescein (FAM) at the 5′ end as the reporter dye, and with minor groove binder (MGB) at the 3′ end as the quencher (Table 5). One-step, quantitative RT-PCR was performed in a total volume of 25 μL, containing 13.9375 μL H2O, 6.25 μL master mix (Eurogentec, Seraing, Belgium), 0.375 μL forward primer, 0.375 μL reverse primer, 1 μL probe, 0.0625 μL reverse transcriptase (Eurogentec) and 3 μL sample. RT-PCR was performed using the ABI 7500 Fast Real-Time PCR System (Applied Biosystems, Branchburg, N.J., USA) using the following conditions: 30 min at 48° C. and 10 min at 95° C., followed by 40 cycles of 15 s at 95° C. and 1 min at 60° C. The data was analyzed using the ABI PRISM 7500 SDS software (version 1.3.1; Applied Biosystems). For absolute quantification, standard curves were generated using 10-fold dilutions of template preparations of known concentrations.

[2] = tested on: DENV-3 strain H87; assay: Tetravalent RT-qPCR assay Protocol A, serotype 3; conditions: Dengue virus, DENV3, 72 h, RT-qPCR serotype 3 H87, Vero cells, day 3
Procedure: The antiviral activity of the compounds of the invention was tested against DENV-1 strain TC974#666 (NCPV), DENV-2 strain 16681, DENV-3 strain H87 (NCPV) and DENV-4 strains H241 (NCPV) and EDEN (SG/06K2270DK1/2005; GenBank accession number QG398256) in a RT-qPCR assay. Therefore, Vero cells were infected with either DENV-1, or -2, or -3, or -4 in the presence or absence of test compounds. At day 3 post-infection, the cells were lysed and cell lysates were used to prepare cDNA of both a viral target (the 3′UTR of DENV; table 2) and a cellular reference gene (β-actin, table 2). Subsequently, a duplex real time PCR was performed on a Lightcycler480 instrument. The generated Cp value is inversely proportional to the amount of RNA expression of these targets. Inhibition of DENV replication by a test compound result in a shift of Cp's for the 3′UTR gene. On the other hand, if a test compound is toxic to the cells, a similar effect on β-actin expression will be observed. The comparative ΔΔCp method is used to calculate EC50, which is based on the relative gene expression of the target gene (3′UTR) normalized with the cellular housekeeping gene (β-actin). In addition, CC50 values were determined based on the Cp values acquired for the housekeeping gene β-actin.
The culture medium consisted of minimal essential medium supplemented with 2% of heat-inactivated fetal calf serum, 0.04% gentamycin (50 mg/mL) and 2 mM of L-glutamine. Vero cells, obtained from ECACC, were suspended in culture medium and 75 μL/well was added in 96-well plates (10000 cells/well), which already contain the antiviral compounds. Typically, these plates contain a 4-fold serial dilution of 9 dilution steps of the test compound at 200 times the final concentration in 100% DMSO (500 nL; final concentration range: 25 μM-0.00038 μM). In addition, each plate contains wells which are assigned as virus controls (containing cells and virus in the absence of compound) and cell controls (containing cells in the absence of virus and compound). Once the cells were added in the plates, the plates were incubated in a fully humidified incubator (37° C., 5% CO2) until the next day. Then, DENV-1 strain TC974#666, DENV-2 strain 16681, DENV-3 strain H87 or DENV-4 strains H241 or EDEN were added. […] In parallel, 25 μL of culture medium was added to the cell controls. Next, the plates were incubated for 3 days in a fully humidified incubator (37° C., 5% CO2). After 3 days, the supernatant was removed from the wells and the cells were washed twice with ice-cold PBS (˜100 μL). The cell pellets within the 96-well plates were stored at −80° C. for at least 1 day. Next, RNA was extracted using the Cells-to-CT™ lysis kit, according to the manufacture's guideline (Applied Biosystems). The cell lysates can be stored at −80° C. or immediately used in the reverse transcription step. In preparation of the reverse transcription step, mix A (table 3A) was prepared and 7.57 μL/well was dispensed in a 96-well plate. After addition of 5 μL of the cell lysates, a five minute denaturation step at 75° C. was performed (table 3B). Afterwards, 7.43 μL of mix B was added (table 3C) and the reverse transcription step was initiated (table 3D) to generate cDNA.
Finally, a RT-qPCR mix was prepared, mix C (table 4A), dispensed in 96-well LightCycler qPCR plates to which 3 μL of cDNA was added and the qPCR was performed according to the conditions in table 4B on a LightCycler 480. Using the LightCycler software and an in-house LIMS system, dose response curves for each compound were calculated and the half maximal effective concentration (EC50) and the half maximal cytotoxic concentration (CO50) were determined (Tables 6-9).

[3] = tested on: DENV-1 Djibouti strain D1/H/IMTSSA/98/606; assay: Tetravalent RT-qPCR assay Protocol B, serotype 1; conditions: Dengue virus, DENV1, Vero, 168 h
Procedure: as §1

[4] = tested on: DENV-2 NGC-Tongalike; assay: Tetravalent RT-qPCR assay Protocol B, serotype 2; conditions: Dengue virus, DENV2, Vero, 96 h
Procedure: as §1

## COc1cc(NC(C(=O)c2c[nH]c3c(Cl)c(OC)ccc23)c2ccc(F)cc2OC)cc(OCCO)c1 (single isomer, unassigned) [Compound 8A, 1-(7-chloro-6-methoxy-1H-indol-3-yl)-2-(4-fluoro-2-methoxyphenyl)-2-((3-(2-hydroxyethoxy)-5-methoxyphenyl)amino)ethanone]
[1]
  EC50: 29 nM
[2]
  EC50: 200 nM
[3]
  EC50: 49 nM
[4]
  EC50: < 0.24 nM

## COc1cc(NC(C(=O)c2c[nH]c3cc(Cl)ccc23)c2ccc(F)cc2OC)cc(OCCO)c1 (single isomer, unassigned) [Compound 4A, 1-(6-chloro-1H-indol-3-yl)-2-(4-fluoro-2-methoxyphenyl)-2-((3-(2-hydroxyethoxy)-5-methoxyphenyl)amino)ethanone]
[1]
  EC50: 16 nM
[2]
  EC50: 140 nM
[3]
  EC50: 27 nM
[4]
  EC50: < 0.29 nM

## COc1cc(NC(C(=O)c2c[nH]c3cc(F)c(F)cc23)c2ccc(F)cc2OC)cc(OCCO)c1 (single isomer, unassigned) [Compound 10B, 1-(5,6-difluoro-1H-indol-3-yl)-2-(4-fluoro-2-methoxy-phenyl)-2-((3-(2-hydroxyethoxy)-5-methoxyphenyl)amino)ethanone]
[1]
  EC50: < 22 nM
[2]
  EC50: 130 nM
[3]
  EC50: 52 nM
[4]
  EC50: 1.6 nM

## COc1cc(NC(C(=O)c2c[nH]c3cc(OC)c(C)cc23)c2ccc(F)cc2OC)cc(OCCO)c1 (single isomer, unassigned) [Compound 6A, 2-(4-fluoro-2-methoxyphenyl)-2-((3-(2-hydroxyethoxy)-5-methoxyphenyl)amino)-1-(6-methoxy-5-methyl-1H-indol-3-yl)ethanone]
[1]
  EC50: 20 nM
[2]
  EC50: 130 nM
[3]
  EC50: 21 nM
[4]
  EC50: < 0.35 nM

## COc1cc(NC(C(=O)c2c[nH]c3c(C)cc(F)cc23)c2ccc(F)cc2OC)cc(OCCO)c1 (single isomer, unassigned) [Compound 9B, 2-(4-fluoro-2-methoxyphenyl)-1-(5-fluoro-7-methyl-1H-indol-3-yl)-2-((3-(2-hydroxyethoxy)-5-methoxyphenyl)amino)ethanone]
[1]
  EC50: 66 nM
[2]
  EC50: 190 nM
[3]
  EC50: 42 nM
[4]
  EC50: 0.8 nM

## COc1cc(NC(C(=O)c2c[nH]c3cc(OC)c(F)cc23)c2ccc(F)cc2OC)cc(OCCO)c1 (single isomer, unassigned) [Compound 7A, 2-(4-fluoro-2-methoxyphenyl)-1-(5-fluoro-6-methoxy-1H-indol-3-yl)-2-((3-(2-hydroxyethoxy)-5-methoxyphenyl)amino)ethanone]
[1]
  EC50: 41 nM
[2]
  EC50: 190 nM
[3]
  EC50: 55 nM
[4]
  EC50: 1.6 nM

## COc1cc(NC(C(=O)c2c[nH]c3c(C)c(Cl)ccc23)c2ccc(F)cc2OC)cc(OCCO)c1 (single isomer, unassigned) [Compound 3A, 1-(6-chloro-7-methyl-1H-indol-3-yl)-2-(4-fluoro-2-methoxyphenyl)-2-((3-(2-hydroxyethoxy)-5-methoxyphenyl)amino)ethanone]
[1]
  EC50: 32 nM
[2]
  EC50: 88 nM
[3]
  EC50: 45 nM
[4]
  EC50: < 0.28 nM

## COc1cc(NC(C(=O)c2c[nH]c3c(C)c(F)ccc23)c2ccc(F)cc2OC)cc(OCCO)c1 (single isomer, unassigned) [Compound 2B, 2-(4-fluoro-2-methoxyphenyl)-1-(6-fluoro-7-methyl-1H-indol-3-yl)-2-((3-(2-hydroxyethoxy)-5-methoxyphenyl)amino)ethanone]
[1]
  EC50: 42 nM
[2]
  EC50: 110 nM
[3]
  EC50: 41 nM
[4]
  EC50: 0.81 nM

## COc1cc(NC(C(=O)c2c[nH]c3c(F)c(F)ccc23)c2ccc(F)cc2OC)cc(OCCO)c1 (single isomer, unassigned) [Compound 5B, 1-(6,7-difluoro-1H-indol-3-yl)-2-(4-fluoro-2-methoxyphenyl)-2-((3-(2-hydroxyethoxy)-5-methoxyphenyl)amino)ethanone]
[1]
  EC50: 50 nM
[2]
  EC50: 190 nM
[3]
  EC50: 65 nM
[4]
  EC50: 0.44 nM

## COc1cc(NC(C(=O)c2c[nH]c3c(F)cc(C)cc23)c2ccc(F)cc2OC)cc(OCCO)c1 (single isomer, unassigned) [Compound 12B, 2-(4-fluoro-2-methoxyphenyl)-1-(7-fluoro-5-methyl-1H-indol-3-yl)-2-((3-(2-hydroxyethoxy)-5-methoxyphenyl)amino)ethanone]
[1]
  EC50: 77 nM
[2]
  EC50: 270 nM
[3]
  EC50: 96 nM
[4]
  EC50: 1.7 nM

## COc1cc(NC(C(=O)c2c[nH]c3cc(F)ccc23)c2ccc(F)cc2OC)cc(OCCO)c1 (single isomer, unassigned) [Compound 1A, 1-(6-fluoro-1H-indol-3-yl)-2-(4-fluoro-2-methoxyphenyl)-2-((3-(2-hydroxyethoxy)-5-methoxyphenyl)amino)ethanone]
[1]
  EC50: 53 nM
[2]
  EC50: 120 nM
[3]
  EC50: 40 nM
[4]
  EC50: 1 nM

## COc1cc(NC(C(=O)c2c[nH]c3c(C)c(OC)ccc23)c2ccc(F)cc2OC)cc(OCCO)c1 (single isomer, unassigned) [Compound 11A, 2-(4-fluoro-2-methoxyphenyl)-2-((3-(2-hydroxyethoxy)-5-methoxyphenyl)amino)-1-(6-methoxy-7-methyl-1H-indol-3-yl)ethanone]
[1]
  EC50: 40 nM
[2]
  EC50: 85 nM
[3]
  EC50: 23 nM
[4]
  EC50: 0.68 nM
